Assay results from paper PMC12155096 (International Journal of Molecular Sciences, 2025).
Where a name gives a salt, the structure may show the parent alone. Read-outs that look alike come from different tables or passages of the source.

Tests used:
human CYP1A2 = biological target: T1, human CYP1A2 (Homo sapiens, UniProt P05177); experiment: biochemical
T1 sequence (P05177 1-516): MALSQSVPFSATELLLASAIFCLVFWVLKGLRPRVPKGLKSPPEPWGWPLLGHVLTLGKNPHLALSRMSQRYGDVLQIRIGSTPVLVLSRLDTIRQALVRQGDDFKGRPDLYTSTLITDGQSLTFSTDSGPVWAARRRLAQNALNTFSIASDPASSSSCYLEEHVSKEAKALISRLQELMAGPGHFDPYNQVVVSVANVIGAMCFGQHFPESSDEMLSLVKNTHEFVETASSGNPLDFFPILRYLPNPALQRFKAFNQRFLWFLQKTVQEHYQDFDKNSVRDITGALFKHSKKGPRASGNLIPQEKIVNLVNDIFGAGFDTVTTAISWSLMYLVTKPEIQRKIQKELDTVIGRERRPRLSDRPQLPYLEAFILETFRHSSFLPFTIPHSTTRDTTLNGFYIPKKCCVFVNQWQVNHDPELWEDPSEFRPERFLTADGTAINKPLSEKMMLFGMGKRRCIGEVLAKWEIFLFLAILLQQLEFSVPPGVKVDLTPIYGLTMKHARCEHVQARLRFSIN

human CYP2C9 = human CYP2C9 (Homo sapiens, UniProt P11712)
CYP3A4 = CYP3A4 (Homo sapiens, UniProt P08684)
[1] = biological target: Photinus pyralis (firefly) luciferase (Photinus pyralis, UniProt P08659); experiment: biochemical; type: biochemical
human CYP2D6 = human CYP2D6 (Homo sapiens, UniProt P10635); experiment: biochemical
human CYP2C19 [2] = biological target: T2, human CYP2C19 (Homo sapiens, UniProt P33261); experiment: biochemical
human CYP2C19 [3] = biological target: T2, human CYP2C19
[4] = CYP1A2 IC50 (half-maximal inhibitory concentration)
[5] = CYP2D6 IC50 (half-maximal inhibitory concentration)
[6] = CYP2C19 IC50 (half-maximal inhibitory concentration)

Sequence of human CYP2D6 (P10635 whole entry): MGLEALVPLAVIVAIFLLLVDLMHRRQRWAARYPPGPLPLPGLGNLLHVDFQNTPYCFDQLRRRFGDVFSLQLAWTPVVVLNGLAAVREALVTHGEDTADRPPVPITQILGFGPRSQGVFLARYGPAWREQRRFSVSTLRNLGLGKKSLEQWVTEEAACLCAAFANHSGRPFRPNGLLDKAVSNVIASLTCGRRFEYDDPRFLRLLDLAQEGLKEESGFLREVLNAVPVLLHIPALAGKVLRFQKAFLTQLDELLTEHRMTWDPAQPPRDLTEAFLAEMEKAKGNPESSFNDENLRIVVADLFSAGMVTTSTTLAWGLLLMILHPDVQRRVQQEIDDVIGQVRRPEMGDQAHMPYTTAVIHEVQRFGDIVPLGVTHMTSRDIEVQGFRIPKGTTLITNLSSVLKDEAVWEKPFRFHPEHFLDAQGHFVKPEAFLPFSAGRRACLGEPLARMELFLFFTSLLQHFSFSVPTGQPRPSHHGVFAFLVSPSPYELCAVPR
Sequence of CYP3A4 (P08684 whole entry): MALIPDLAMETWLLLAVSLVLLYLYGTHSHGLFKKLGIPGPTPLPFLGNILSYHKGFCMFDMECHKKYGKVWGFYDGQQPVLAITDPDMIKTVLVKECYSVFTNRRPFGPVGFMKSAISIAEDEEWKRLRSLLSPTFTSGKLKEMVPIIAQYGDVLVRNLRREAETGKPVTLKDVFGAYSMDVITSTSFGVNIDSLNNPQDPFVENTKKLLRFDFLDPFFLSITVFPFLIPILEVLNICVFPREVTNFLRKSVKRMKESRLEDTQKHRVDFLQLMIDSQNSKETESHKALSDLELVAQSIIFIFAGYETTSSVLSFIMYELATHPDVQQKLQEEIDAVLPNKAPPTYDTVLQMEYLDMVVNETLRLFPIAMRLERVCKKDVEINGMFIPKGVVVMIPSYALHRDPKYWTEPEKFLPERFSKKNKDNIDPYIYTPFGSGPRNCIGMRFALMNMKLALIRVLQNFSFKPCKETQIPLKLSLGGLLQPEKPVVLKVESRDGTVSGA
Sequence of Photinus pyralis (firefly) luciferase (P08659 whole entry): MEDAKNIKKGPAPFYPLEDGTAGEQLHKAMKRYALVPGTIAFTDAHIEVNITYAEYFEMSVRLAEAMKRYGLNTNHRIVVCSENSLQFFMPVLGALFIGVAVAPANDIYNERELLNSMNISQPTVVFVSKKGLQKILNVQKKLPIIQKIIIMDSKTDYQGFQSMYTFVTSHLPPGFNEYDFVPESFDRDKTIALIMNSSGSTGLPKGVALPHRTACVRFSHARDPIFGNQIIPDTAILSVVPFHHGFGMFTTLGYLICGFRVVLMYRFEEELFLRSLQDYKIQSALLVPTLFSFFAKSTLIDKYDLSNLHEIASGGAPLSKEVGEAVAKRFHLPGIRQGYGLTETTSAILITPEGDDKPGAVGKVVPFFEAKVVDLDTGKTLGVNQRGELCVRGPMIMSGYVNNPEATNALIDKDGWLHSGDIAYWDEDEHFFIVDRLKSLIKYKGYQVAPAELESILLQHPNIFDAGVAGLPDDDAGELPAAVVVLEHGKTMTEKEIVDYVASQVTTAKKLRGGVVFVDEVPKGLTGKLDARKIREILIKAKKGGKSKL
Sequence of human CYP2C9 (P11712 whole entry): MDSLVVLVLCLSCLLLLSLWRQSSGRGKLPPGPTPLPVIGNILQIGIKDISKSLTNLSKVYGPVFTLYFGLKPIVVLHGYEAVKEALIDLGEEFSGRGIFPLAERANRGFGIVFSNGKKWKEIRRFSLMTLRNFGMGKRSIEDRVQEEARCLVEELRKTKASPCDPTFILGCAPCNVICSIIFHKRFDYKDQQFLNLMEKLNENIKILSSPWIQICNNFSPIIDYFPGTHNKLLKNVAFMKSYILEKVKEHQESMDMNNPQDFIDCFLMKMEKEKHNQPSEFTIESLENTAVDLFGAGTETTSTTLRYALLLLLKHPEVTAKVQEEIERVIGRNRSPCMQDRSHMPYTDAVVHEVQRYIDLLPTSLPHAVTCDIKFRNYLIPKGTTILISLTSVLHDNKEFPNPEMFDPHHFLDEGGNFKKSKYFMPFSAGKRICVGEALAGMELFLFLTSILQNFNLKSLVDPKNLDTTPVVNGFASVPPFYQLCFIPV
T2 sequence (P33261 whole entry): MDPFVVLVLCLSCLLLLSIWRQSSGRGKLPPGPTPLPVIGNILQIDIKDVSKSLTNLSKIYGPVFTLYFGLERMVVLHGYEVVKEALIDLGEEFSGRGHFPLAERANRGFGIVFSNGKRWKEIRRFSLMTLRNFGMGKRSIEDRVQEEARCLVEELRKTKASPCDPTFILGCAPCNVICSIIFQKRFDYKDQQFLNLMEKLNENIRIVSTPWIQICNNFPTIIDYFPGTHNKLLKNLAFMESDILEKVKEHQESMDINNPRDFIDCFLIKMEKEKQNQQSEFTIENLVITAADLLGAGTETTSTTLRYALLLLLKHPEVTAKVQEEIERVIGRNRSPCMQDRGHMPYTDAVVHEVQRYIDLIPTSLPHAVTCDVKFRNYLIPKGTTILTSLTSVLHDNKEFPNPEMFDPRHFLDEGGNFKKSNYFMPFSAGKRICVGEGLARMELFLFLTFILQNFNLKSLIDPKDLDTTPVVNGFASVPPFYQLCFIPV

SMILES | IC50 (human CYP1A2; CYP1A2 IC50) [µM] | CYP2C9 IC50 (human CYP2C9) | CYP3A4 IC50 (CYP3A4) | Luciferase IC50 [1] | IC50 (human CYP2D6; CYP2D6 IC50) [µM] | CYP2C9 IC50 (half-maximal inhibitory concentration) (human CYP2C9) | CYP3A4 IC50 (half-maximal inhibitory concentration) (CYP3A4) | Luciferase IC50 (half-maximal inhibitory concentration) [1] | IC50 (human CYP1A2; [4]) [µM] | IC50 (human CYP2D6; [5]) [µM] | IC50 (human CYP2C19 [2]; [6]) [µM] | other results
CCCCC(CC)CNCC(CC)CCCC (stereo not drawn) [2,2'-Diethylhexylamine] | 47.4 | Inactive | Inactive | Inactive | 0.31 |  |  |  |  |  |  | IC50 (human CYP2C19 [2]; CYP2C19 IC50): 51.3 µM
CCN(CC)CCCN(c1ccccc1)C1Cc2ccccc2C1 [Aprindine hydrochloride] | 22.2 | Inactive | Inactive | Inactive | 0.44 |  |  |  |  |  |  | IC50 (human CYP2C19 [2]; CYP2C19 IC50): 41.3 µM
c1ccc2c(c1)-c1cccc3c1c-2cc1ccccc13 [Benzo(b)fluoranthene] | 0.69 | Inactive | Inactive |  | 30 |  |  |  |  |  |  | IC50 [1]: 5.37 µM; IC50 (human CYP2C19 [2]; CYP2C19 IC50): 10.5 µM
CCCCc1cc2ccccc2c(OCCN(C)C)n1 [Dimethisoquin hydrochloride] |  |  |  |  |  | Inactive | Inactive | Inactive |  |  |  | IC50 (human CYP1A2): 0.47 ± 0.03 µM; IC50 (human CYP2D6): 4.36 µM; IC50 (human CYP2C19 [2]): 39.2 ± 6.35 µM
CCc1ccc(C2CCNCC2)cc1 [Enefexine] |  | Inactive | Inactive | Inactive |  |  |  |  |  |  |  | IC50 (human CYP1A2): 23.2 µM; CYP2C19 IC50 (human CYP2C19 [3]): Inactive; IC50 (human CYP2D6): 0.42 µM
CCN(CC)CCNc1ccc(CO)c2sc3ccccc3c(=O)c12 [Hycanthone] | 0.58 | Inactive | Inactive | Inactive | 3.77 |  |  |  |  |  |  | CYP2C19 IC50 (human CYP2C19 [3]): Inactive
CCn1ccnc1CC1COc2ccccc2O1 (stereo not drawn) [Imiloxan] |  |  |  |  |  | Inactive | Inactive | Inactive | 25.3 | 0.69 | 4.42 | 
CN1[C@@H]2CC[C@H]1C[C@@H](OC(=O)c1cc(Cl)cc(Cl)c1)C2 [MDL 72222] |  |  |  |  |  | Inactive | Inactive | Inactive | 14.6 | 0.05 |  | CYP2C19 IC50 (half-maximal inhibitory concentration) (human CYP2C19 [3]): Inactive
COc1ccc(CN(CCN(C)C)c2ccccn2)cc1 [Pyrilamine maleate] |  |  |  |  |  | Inactive | Inactive | Inactive | 62.7 | 0.18 | 15.8 | 
CCN(CC)CCCC(C)Nc1c2ccc(Cl)cc2nc2ccc(OC)cc12 (stereo not drawn) [Quinacrine] | 2.2 | Inactive | Inactive | Inactive | 0.18 |  |  |  |  |  |  | CYP2C19 IC50 (human CYP2C19 [3]): Inactive
COc1ccc(CN(CCN(C)C)c2ncccn2)cc1 [Thonzylamine hydrochloride] |  |  |  |  |  | Inactive | Inactive | Inactive | 18.5 | 0.7 | 15.7 | 
CN(C)CCCN1c2ccccc2Sc2ccc(C(F)(F)F)cc21 [Triflupromazine hydrochloride] |  |  |  |  |  | Inactive | Inactive | Inactive | 3.52 | 0.55 | 7.62 | 
CN(C)CCN(Cc1ccccc1)c1ccccn1 [Tripelennamine citrate] |  |  |  |  |  | Inactive | Inactive | Inactive | 26.5 | 0.2 | 35.7 | 
